In patent publication US9540358B2, “Tricyclic compounds as anticancer agents” (ICAHN SCHOOL OF MEDICINE AT MOUNT SINAI, priority 2011, dated 2017):

What was measured:
[1] = test system: naïve CD4 T cells; assay: Treg induction from naïve CD4 T cells (Foxp3 expression); format: cell-based
Method: Example 30 has been tested for its ability to induce Treg from naïve CD4 T cells. […] Fifty thousand CD4 naïve cells (CD62Lhi, CD25 low, CD4 positive) were incubated with 2 ng/mL TGFβ, 1 ug/mL anti-CD3, 100 ng/mL IL-2, 50000 APCs per well and the compounds 10 μM, 5 μM and 2.5 μM concentrations. The cells were incubated for 3 days and then stained for CD4 and Foxp3 expression. Results were expressed as fold increase over the % induced in control (DMSO) wells (typically 20-25% Foxp3+). AKTi, a small molecule AKT inhibitor, was used as a positive control; it induced about a 4-fold increase. […] The effects of Example 30 on iTreg induction are amplified as the TGFβ concentration decreases.

[2] = test system: H1650 lung cancer cells; assay: Cell viability assay (MTT, IC50 determination); format: cell-based; details: Homo sapiens, NCI-H1650, 48 hours after drug treatment, MTT
Method: (§1) 89(22): p. […] H1650 lung cancer cells were plated at 150,000 cells per well in a 12 well plate. Twenty-four hours after plating, cells were treated as described with increasing concentrations of drug and control. Forty-eight hours after drug treatment, cells were treated with 100 μL of 3-(4,5-Dimethylthiazol-2-yl)-2,5-diphenyltetrazolium bromide (MTT) and incubated for 2 hours at 37 C. The MTT solution was subsequently replaced with 300 μL of n-propyl alcohol and re-aliquoted to a 96 well plates. Spectrophotometric analysis of each solution was performed using a 96 well plate reader at 600 nm in triplicate.

[3] = test system: H292 cells; assay: Colony formation (clonogenic) assay, H292; format: cell-based; details: 8 days
Method: (§2) Protocol for clonogenic assay follows Sangodkar et al. J Clin Invest 2012; 122:2637-51.
(§3) Cell culture and staining: For both A549luc and H292 cells, 500 cells were seeded into each well of a 6-well plate and allowed to attach for 24 hours before drug treatment. The following day, cells were treated with either the appropriate dose of drug or an equivalent volume of DMSO (two replicates were treated for each condition). For each condition, depleted media was replaced with fresh media containing the equivalent drug dose four days after initial treatment. Cells were harvested either 7 (A549luc) or 8 (H292) days after initial treatment. Briefly, media was aspirated from each well and the cells were washed twice with ice-cold PBS, then plates were allowed to dry at room temperature for 4 hours. Cells were fixed for one hour in a fixing solution consisting of 10% methanol and 10% glacial acetic acid in distilled water, then stained overnight in 1% (w/v) crystal violet dissolved in methanol. The next day, staining solution was aspirated from the wells and plates were washed gently with distilled water to remove excess stain before colony counting. Colonies were imaged on a ChemiDoc XRS+ (Bio-Rad) and images were exported as 8-bit TIFF files. Colonies were counted using the Colony Counter plugin in ImageJ, with colony size defined as between 4 and 400 square pixels, and minimum circularity set at 0.6. Duplicate wells were averaged to obtain a single value for each condition. Results (number of colonies) for A549luc cells are shown in Table 2 and results (number of colonies) for H292 cells are shown in Table 3: […]

[4] = test system: A549luc cells; assay: Colony formation (clonogenic) assay, A549luc; format: cell-based; details: 7 days
Method: as §2, §3

[5] = test system: BALB/c hearts transplanted into fully allogeneic B6 recipients; assay: Heart allograft survival; format: in vivo, mice; details: 100 mg/kg i.p., n=4, p<0.05 vs control; untreated rejected by day 8
Method: To test for a clinically relevant in vivo effect, BALB/c hearts were transplanted into fully allogeneic B6 recipients. While untreated animals rejected their grafts by day 8 n=4, the grafts in the mice treated with 100 mg/kg i.p. of Example 30 lasted 18 days n=4, p<0.05 vs control, a statistically and clinically significant effect.

[6] = test system: alloreactive T cells; assay: Suppression assay using induced Tregs; format: cell-based
[7] = test system: EGFR-L858R/CCSP mice; assay: In vivo lung cancer model; details: i.p. 100 mg/kg every other day, two week treatment period, MRI; DMSO control 20% increase
Method: The in vivo lung cancer model is described in Politi et al., Genes Dev. Jun. 1, 2006 20: 1496-1510. EGFR-L858R/CCSP mice were fed doxycycline-impregnanted food pellets to induce tumor formation. After 8-12 weeks, mice were imaged in a Bruker 4.7T Biospec scanner to confirm lung nodule development. After tumor confirmation, the compound of Example 30 was prepared in DMSO (Sigma) and administered i.p. at 100 mg/kg every other day for two weeks. After treatment, the mice were re-imaged by MRI, and pre-treatment and post-treatment lung volumes were calculated by visible lung opacity present in each axial image using Osirix 4.1.1. DMSO control animals show a 20% increase in tumor volume over two week treatment period. Animals treated with the compound of Example 30 show a 60% decrease in tumor volume over two week treatment period.

[8] = Cell viability assay (MTT, IC50 determination); format: cell-based; details: human, H1650 lung cancer cells
Method: as §1

Compound | IC50 [2] | number of colonies ([3]; 5 μM) | number of colonies ([3]; 7.5 μM) | number of colonies ([3]; 10 μM) | number of colonies ([4]; 5 μM) | number of colonies ([4]; 7.5 μM) | number of colonies ([4]; 10 μM) | other results
O=S(=O)(NCCN1c2ccccc2Sc2ccc(Cl)cc21)c1ccc(Cl)cc1 [Example 27, 4-chloro-N-(2-(2-chloro-10H-phenothiazin-10-yl)ethyl)benzenesulfonamide] | 20 µM |  |  |  |  |  |  | fold increase in iTreg over control (DMSO) wells ([1]; at 5 μM, 3 days, 2 ng/mL TGFβ): 2 fold
O=S(=O)(NCCCN1c2ccccc2CCc2ccc(Cl)cc21)c1ccc(OC(F)(F)F)cc1 [Example 30, N-(3-(3-chloro-10,11-dihydro-5H-dibenzo[b,f]azepin-5-yl)propyl)-4-(trifluoromethoxy)benzenesulfonamide] | 12.6 µM | 95 | 74.5 | 61 | 116 | 111.5 | 67.5 | heart graft survival [5]: 18 days; fold increase in iTreg over control (DMSO) wells ([1]; at 2.5 μM, 3 days, 2 ng/mL TGFβ): greater than 2 fold; upregulation of Foxp3 ([1]; naïve polyclonal T cells treated with TGFβ and TCR transgenic T cells stimulated in vivo during costimulatory blockade): facilitated upregulation of Foxp3; suppressive capacity of iTreg induced with or without compound (% inhibition of maximal proliferation) [6]: equivalent suppressive capacity; decrease in tumor volume [7]: 60%
O=S(=O)(NCCCN1c2ccccc2CCc2ccc(Cl)cc21)c1cnc(Cl)c(Br)c1 [Example 63, 5-Bromo-6-chloro-N-(3-(3-chloro-10,11-dihydro-5H-dibenzo[b,f]azepin-5-yl)propyl)pyridine-3-sulfonamide] |  |  |  |  |  |  |  | viability at 48 h, 20 µM ([8]; @ 20 μM): 65%
O=S(=O)(NC[C@H](O)CN1c2ccccc2CCc2ccccc21)c1ccc(OC(F)(F)F)cc1 [Example 75, (R)—N-(3-(10,11-dihydro-5H-dibenzo[b,f]azepin-5-yl)-2-hydroxypropyl)-4-(trifluoromethoxy)benzenesulfonamide] | ~15 µM | 109.5 | 80 | 47 | 133.5 | 105 | 63.5 | 
O=S(=O)(NCCCN1c2ccccc2CCc2ccccc21)c1cccnc1 [Example 89] |  |  |  |  |  |  |  | viability at 48 h, 40 µM ([8]; @ 40 μM): 50%
O=C(CCCN1CCC(O)(c2ccc(Cl)cc2)CC1)c1ccc(F)cc1 [Haloperidol, reference compound] |  |  |  |  |  |  |  | fold increase in iTreg (Foxp3+) over control (DMSO) wells ([1]; control compounds, concentration not given, 3 days, 2 ng/mL TGFβ): did not induce a statistically significant increase
